# Laboratory results as given in ChEMBL document CHEMBL1201862, “PubChem BioAssay data set” (2004).
#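 Grown in 96-well plates, cells were treated for 48 hours with each compound at five concentrations. Insufficient inhibition: endpoint recorded as highest concentration tested. GI50: concentration for 50% inhibition of growth.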 Calls of active or inactive are those of the source. No stated cut-off is given here; in the data, active = GI50 up to about 1.1 µM and inactive = higher.
# Experiments:
# Test in all cases: NCI tumour cell line growth inhibition, 48 h
# [1] = system: NCI-H522
# [2] = system: HOP-92
# [3] = system: UO-31
# [4] = system: EKVX
# [5] = system: NCI-H226
# [6] = system: MCF7
# [7] = system: Malme-3M
# [8] = system: SW-620
# [9] = system: SK-MEL-28
# [10] = system: KM12
# [11] = system: OVCAR-8
# [12] = system: TK-10
# [13] = system: ACHN
# [14] = system: COLO 205
# [15] = system: MDA-N
# [16] = system: HCT-116
# [17] = system: SK-MEL-5
# [18] = system: 786-0
# [19] = system: SK-MEL-2
# [20] = system: SNB-75
# [21] = system: NCI/ADR-RES
# [22] = system: DU-145
# [23] = system: SF-268
# [24] = system: CAKI-1
# [25] = system: BT-549
# [26] = system: OVCAR-4
# [27] = system: OVCAR-3
# [28] = system: K562
# [29] = system: SN12C
# [30] = system: A549
# [31] = system: SF-295
# [32] = system: HT-29
# [33] = system: RPMI-8226
# [34] = system: NCI-H23
# [35] = system: SNB-19
# [36] = system: MDA-MB-435
# [37] = system: HCT-15
# [38] = system: MDA-MB-231
# [39] = system: UACC-257
# [40] = system: U-251
# [41] = system: HCC 2998
# [42] = system: HL-60
# [43] = system: Hs-578T
# [44] = system: PC-3
# [45] = system: IGROV-1
# [46] = system: OVCAR-5
# [47] = system: MOLT-4
# [48] = system: SF-539
# [49] = system: HOP-62
# [50] = system: SR
# [51] = system: NCI-H460
# [52] = system: RXF 393
# [53] = system: LOX IMVI
# [54] = system: CCRF-CEM
# [55] = system: M14
# [56] = system: A498
# [57] = system: SK-OV-3
# [58] = system: UACC-62
# [59] = system: T47D
structure (smiles),measurement,setting,value
COC(CN(C(=O)c1ccccc1)C1CCC2(SCCS2)c2[nH]c3ccccc3c21)OC (stereo not drawn),GI50,[1],13.9 µM (inactive)
same,GI50,[2],7.24 µM (inactive)
same,GI50,[3],16 µM (inactive)
same,GI50,[4],19.6 µM (inactive)
same,GI50,[5],83.8 µM (inactive)
same,GI50,[6],32.1 µM (inactive)
same,GI50,[7],25.2 µM (inactive)
same,GI50,[8],33.3 µM (inactive)
same,GI50,[9],61.2 µM (inactive)
same,GI50,[10],27.5 µM (inactive)
same,GI50,[11],34.9 µM (inactive)
same,GI50,[12],32.7 µM (inactive)
same,GI50,[13],27.8 µM (inactive)
same,GI50,[14],21.9 µM (inactive)
same,GI50,[15],12.9 µM (inactive)
same,GI50,[16],32.3 µM (inactive)
same,GI50,[17],26 µM (inactive)
same,GI50,[18],37 µM (inactive)
same,GI50,[19],32.6 µM (inactive)
same,GI50,[20],20.2 µM (inactive)
same,GI50,[21],18.1 µM (inactive)
same,GI50,[22],93.3 µM (inactive)
same,GI50,[23],> 100 µM (inactive)
same,GI50,[24],21 µM (inactive)
same,GI50,[25],13.7 µM (inactive)
same,GI50,[26],28.2 µM (inactive)
same,GI50,[27],25.8 µM (inactive)
same,GI50,[28],14.9 µM (inactive)
same,GI50,[29],24.2 µM (inactive)
same,GI50,[30],30.7 µM (inactive)
same,GI50,[31],3.01 µM (inactive)
same,GI50,[32],37.3 µM (inactive)
same,GI50,[33],29.6 µM (inactive)
same,GI50,[34],58.6 µM (inactive)
same,GI50,[35],22.4 µM (inactive)
same,GI50,[36],15.6 µM (inactive)
same,GI50,[37],30.6 µM
same,GI50,[38],28.9 µM (inactive)
same,GI50,[39],14.4 µM (inactive)
same,GI50,[40],25.9 µM (inactive)
same,GI50,[41],30.5 µM (inactive)
same,GI50,[42],16.9 µM (inactive)
same,GI50,[43],75.2 µM (inactive)
same,GI50,[44],18.2 µM (inactive)
same,GI50,[45],40.6 µM (inactive)
same,GI50,[46],33.7 µM (inactive)
same,GI50,[47],14.6 µM (inactive)
same,GI50,[48],63.1 µM (inactive)
same,GI50,[49],27.7 µM (inactive)
same,GI50,[50],30.4 µM (inactive)
same,GI50,[51],33.8 µM (inactive)
same,GI50,[52],20.3 µM (inactive)
same,GI50,[53],2.18 µM (inactive)
same,GI50,[54],44.2 µM (inactive)
same,GI50,[55],30.7 µM (inactive)
same,GI50,[56],46.6 µM (inactive)
CNC(=O)N(CCC#N)CCN(C(=O)NC)c1ccccc1,GI50,[1],> 100 µM (inactive)
same,GI50,[2],> 100 µM (inactive)
same,GI50,[3],> 100 µM (inactive)
same,GI50,[4],> 100 µM (inactive)
same,GI50,[5],> 100 µM (inactive)
same,GI50,[6],> 100 µM (inactive)
same,GI50,[7],> 73.8 µM (inactive)
same,GI50,[8],> 100 µM (inactive)
same,GI50,[9],> 100 µM (inactive)
same,GI50,[10],> 100 µM (inactive)
same,GI50,[11],> 100 µM (inactive)
same,GI50,[12],> 100 µM (inactive)
same,GI50,[13],> 100 µM (inactive)
same,GI50,[14],> 100 µM (inactive)
same,GI50,[15],> 100 µM (inactive)
same,GI50,[16],> 100 µM (inactive)
same,GI50,[17],> 100 µM (inactive)
same,GI50,[18],> 100 µM (inactive)
same,GI50,[19],> 100 µM (inactive)
same,GI50,[20],65 µM (inactive)
same,GI50,[21],> 100 µM (inactive)
same,GI50,[22],> 100 µM (inactive)
same,GI50,[23],> 100 µM (inactive)
same,GI50,[24],> 100 µM (inactive)
same,GI50,[25],> 100 µM (inactive)
same,GI50,[57],> 100 µM (inactive)
same,GI50,[26],> 100 µM (inactive)
same,GI50,[27],> 100 µM (inactive)
same,GI50,[28],> 100 µM (inactive)
same,GI50,[29],> 100 µM (inactive)
same,GI50,[30],> 100 µM (inactive)
same,GI50,[31],> 100 µM (inactive)
same,GI50,[32],> 100 µM (inactive)
same,GI50,[33],> 100 µM (inactive)
same,GI50,[34],> 100 µM (inactive)
same,GI50,[35],> 100 µM (inactive)
same,GI50,[58],> 100 µM (inactive)
same,GI50,[36],> 100 µM (inactive)
same,GI50,[37],> 100 µM
same,GI50,[38],> 100 µM (inactive)
same,GI50,[39],> 100 µM (inactive)
same,GI50,[40],> 100 µM (inactive)
same,GI50,[41],> 100 µM (inactive)
same,GI50,[59],> 100 µM (inactive)
same,GI50,[44],> 100 µM (inactive)
same,GI50,[45],> 100 µM (inactive)
same,GI50,[46],> 100 µM (inactive)
same,GI50,[47],> 100 µM (inactive)
same,GI50,[48],> 100 µM (inactive)
same,GI50,[49],> 100 µM (inactive)
same,GI50,[50],> 100 µM (inactive)
same,GI50,[51],> 100 µM (inactive)
same,GI50,[52],> 100 µM (inactive)
same,GI50,[53],> 100 µM (inactive)
same,GI50,[54],> 100 µM (inactive)
same,GI50,[55],> 100 µM (inactive)
same,GI50,[56],> 100 µM (inactive)
